The text below walks through data of ChEMBL document CHEMBL1201862, “PubChem BioAssay data set” (2004).

Activity calls are given as the source filed them. Rule as the data show it, for most assays here: actives have a measured IC50 and inactives only a lower limit. Some results are limits rather than exact numbers.

Holding throughout (type): functional
Assay [1] concerns the target T1, Heat shock factor protein 1 (Mus musculus, UniProt P38532).
T1 sequence (P38532 whole entry): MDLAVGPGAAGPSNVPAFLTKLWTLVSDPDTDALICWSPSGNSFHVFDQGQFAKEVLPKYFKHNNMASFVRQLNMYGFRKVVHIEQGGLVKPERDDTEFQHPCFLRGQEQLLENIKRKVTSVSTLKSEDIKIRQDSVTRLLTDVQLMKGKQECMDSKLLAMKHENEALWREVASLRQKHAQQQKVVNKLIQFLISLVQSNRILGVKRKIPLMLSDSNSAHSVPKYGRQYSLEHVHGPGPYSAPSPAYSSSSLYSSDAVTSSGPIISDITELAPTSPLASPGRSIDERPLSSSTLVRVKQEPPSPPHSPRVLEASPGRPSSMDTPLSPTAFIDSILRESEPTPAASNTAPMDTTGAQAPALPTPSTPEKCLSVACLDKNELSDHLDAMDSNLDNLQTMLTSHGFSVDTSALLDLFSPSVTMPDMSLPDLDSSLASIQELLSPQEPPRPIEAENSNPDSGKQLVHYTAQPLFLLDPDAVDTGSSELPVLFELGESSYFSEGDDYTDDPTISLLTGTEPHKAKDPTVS
As to the kind of experiment: inhibition of MG132-induced HSE-luciferase signal, confirmation, cell-based, NIH3T3, luminescence, dose retest (AID 2382).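 Also: NIH3T3 fibroblasts with HSF1-driven luciferase reporter stressed by proteasome inhibitor MG132; luminescence from HSF1-driven luciferase expression after 8 hours of MG132 stress.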

The target of assay [2] is T2, Sentrin-specific protease 8 (Homo sapiens, UniProt Q96LD8).
T2 sequence (Q96LD8 whole entry): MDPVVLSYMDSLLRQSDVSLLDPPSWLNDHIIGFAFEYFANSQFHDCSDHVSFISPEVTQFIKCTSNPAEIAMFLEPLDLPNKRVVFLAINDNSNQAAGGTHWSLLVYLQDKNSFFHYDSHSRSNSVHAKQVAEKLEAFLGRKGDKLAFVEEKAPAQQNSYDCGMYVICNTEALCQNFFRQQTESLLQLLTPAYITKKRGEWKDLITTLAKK
As to the kind of experiment: SENP8 protease inhibitors, SAR follow-up, biochemical, luminescence (AID 504501).

Assay [3] has as its target T2, Sentrin-specific protease 8. As to the kind of experiment: SENP8 protease inhibitors, SAR follow-up, biochemical, luminescence, set 2 (AID 588601).
Assay [4] deals with T3, Sentrin-specific protease 6 (Homo sapiens, UniProt Q9GZR1).
T3 sequence (Q9GZR1 whole entry): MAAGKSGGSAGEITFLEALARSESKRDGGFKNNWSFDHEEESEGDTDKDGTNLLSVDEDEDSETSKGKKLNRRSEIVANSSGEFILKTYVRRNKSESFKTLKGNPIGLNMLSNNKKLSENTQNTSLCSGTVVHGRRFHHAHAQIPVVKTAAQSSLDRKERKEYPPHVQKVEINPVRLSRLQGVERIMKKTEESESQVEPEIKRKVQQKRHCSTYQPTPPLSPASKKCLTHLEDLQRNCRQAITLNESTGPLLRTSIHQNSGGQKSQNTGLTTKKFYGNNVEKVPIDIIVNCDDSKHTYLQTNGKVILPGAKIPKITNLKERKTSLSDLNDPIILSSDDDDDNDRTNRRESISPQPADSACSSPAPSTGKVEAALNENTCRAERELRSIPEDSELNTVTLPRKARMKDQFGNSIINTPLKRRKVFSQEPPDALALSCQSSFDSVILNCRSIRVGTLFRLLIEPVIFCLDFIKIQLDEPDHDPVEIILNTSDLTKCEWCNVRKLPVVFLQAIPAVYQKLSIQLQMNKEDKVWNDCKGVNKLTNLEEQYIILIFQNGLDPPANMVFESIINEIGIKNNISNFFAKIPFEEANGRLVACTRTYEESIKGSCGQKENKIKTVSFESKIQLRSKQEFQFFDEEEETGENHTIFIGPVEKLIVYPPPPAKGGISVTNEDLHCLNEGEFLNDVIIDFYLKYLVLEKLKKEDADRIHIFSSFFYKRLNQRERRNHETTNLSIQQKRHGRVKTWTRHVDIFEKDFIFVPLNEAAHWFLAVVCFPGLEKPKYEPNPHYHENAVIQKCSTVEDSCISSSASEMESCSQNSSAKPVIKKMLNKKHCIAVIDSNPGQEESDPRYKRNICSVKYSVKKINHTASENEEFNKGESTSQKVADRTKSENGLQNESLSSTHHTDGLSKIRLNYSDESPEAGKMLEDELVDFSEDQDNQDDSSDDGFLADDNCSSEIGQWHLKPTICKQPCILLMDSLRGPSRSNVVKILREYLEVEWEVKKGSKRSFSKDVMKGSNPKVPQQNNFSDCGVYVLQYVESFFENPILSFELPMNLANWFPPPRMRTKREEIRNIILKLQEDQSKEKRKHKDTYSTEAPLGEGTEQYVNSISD
As to the kind of experiment: SAR Analysis of small molecule inhibitors of Sentrin-specific protease 6 (SENP6) using a Luminescent assay. [Related pubchem assays (depositor defined):AID2582, AID2599].

The target of assay [5] is T4, Sentrin-specific protease 7 (Homo sapiens, UniProt Q9BQF6).
T4 sequence (Q9BQF6 whole entry): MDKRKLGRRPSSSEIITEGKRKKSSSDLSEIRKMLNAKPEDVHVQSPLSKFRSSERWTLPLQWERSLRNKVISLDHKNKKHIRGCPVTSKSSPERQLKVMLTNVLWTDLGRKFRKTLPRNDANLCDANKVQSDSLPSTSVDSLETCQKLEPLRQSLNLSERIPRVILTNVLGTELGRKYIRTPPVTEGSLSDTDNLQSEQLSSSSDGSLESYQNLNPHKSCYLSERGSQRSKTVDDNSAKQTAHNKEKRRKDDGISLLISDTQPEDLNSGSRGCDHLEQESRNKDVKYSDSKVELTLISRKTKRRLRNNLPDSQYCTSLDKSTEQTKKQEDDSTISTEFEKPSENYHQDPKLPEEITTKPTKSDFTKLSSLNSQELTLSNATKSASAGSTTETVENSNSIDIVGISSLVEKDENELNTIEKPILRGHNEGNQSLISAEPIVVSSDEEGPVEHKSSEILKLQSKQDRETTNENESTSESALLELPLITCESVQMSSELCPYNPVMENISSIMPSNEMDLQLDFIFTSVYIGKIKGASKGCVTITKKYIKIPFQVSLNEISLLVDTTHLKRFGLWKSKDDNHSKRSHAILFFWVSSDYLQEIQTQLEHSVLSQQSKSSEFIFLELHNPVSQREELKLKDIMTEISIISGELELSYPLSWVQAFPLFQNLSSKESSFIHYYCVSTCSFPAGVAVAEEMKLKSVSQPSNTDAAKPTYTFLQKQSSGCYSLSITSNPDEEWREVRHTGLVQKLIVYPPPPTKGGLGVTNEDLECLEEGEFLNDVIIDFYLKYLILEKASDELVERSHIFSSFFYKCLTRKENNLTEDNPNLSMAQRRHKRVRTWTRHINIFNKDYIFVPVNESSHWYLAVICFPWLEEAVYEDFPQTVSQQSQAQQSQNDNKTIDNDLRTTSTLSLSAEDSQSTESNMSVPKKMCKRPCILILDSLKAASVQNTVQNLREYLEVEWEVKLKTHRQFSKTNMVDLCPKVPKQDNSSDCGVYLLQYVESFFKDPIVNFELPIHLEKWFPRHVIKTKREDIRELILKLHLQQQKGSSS
As to the kind of experiment: SENP7 protease inhibitors, SAR follow-up, biochemical, luminescence (AID 504497).

Usually EC50 stands for the concentration needed to bring the measured effect to its halfway point. For orientation: IC50 means the concentration needed to halve the response being measured.

With `Cc1nn(-c2ccccc2)c(Cl)c1CN(C(=O)CCl)c1ccc(Cl)cc1`, in assay [1], the EC50 is 1.57 µM (active).
Turning to `Oc1ccccc1/C=C/c1noc(-c2ccccc2O)n1`, the IC50 is > 99 µM (inactive) in assay [2], 43 µM (active) in assay [3], > 99 µM (inactive) in assay [4] and 2.5 µM (active) in assay [5].
